Assays:
[1] = target: NAMPT (Homo sapiens (Human), UniProt P43490); assay: NAMPT coupled enzyme activity assay; assay type: biochemical; conditions: NAMPT activation, Table 2; for Emax: read-out: Maximum activation (%)
[2] = tested on: THP-1 cells; assay: cells; conditions: Homo sapiens, THP-1, 24 h; for Emax: read-out: Maximum activation (%)

NAMPT, sequence (P43490 whole entry): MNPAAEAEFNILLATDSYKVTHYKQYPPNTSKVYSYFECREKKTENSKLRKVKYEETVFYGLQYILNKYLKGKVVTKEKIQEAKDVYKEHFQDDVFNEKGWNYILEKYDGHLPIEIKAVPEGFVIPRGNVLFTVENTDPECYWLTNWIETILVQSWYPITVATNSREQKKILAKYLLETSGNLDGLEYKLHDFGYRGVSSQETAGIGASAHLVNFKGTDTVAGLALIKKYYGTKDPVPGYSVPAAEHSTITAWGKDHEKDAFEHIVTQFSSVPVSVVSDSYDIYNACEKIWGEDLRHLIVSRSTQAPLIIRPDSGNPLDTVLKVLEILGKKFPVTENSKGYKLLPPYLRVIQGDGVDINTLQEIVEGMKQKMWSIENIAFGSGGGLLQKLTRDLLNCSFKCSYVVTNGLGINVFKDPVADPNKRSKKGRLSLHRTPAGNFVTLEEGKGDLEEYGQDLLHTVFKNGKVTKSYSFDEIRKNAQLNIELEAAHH

Compound | EC50 [1] | Emax [1] | EC50 [2] | Emax [2]
Cc1ccc(-n2cc3c(N4CCCC(C(=O)NCc5ccc(N(C)C)cc5)C4)ncnc3n2)cc1 (stereo not drawn) | 0.16 µM | 186% | – | –
CSc1ccc(CNC(=O)C2CCN(c3ncnc4nn(-c5ccc(C)cc5)cc34)CC2)cc1 | 9.4 µM | 240% | – | –
Cc1ccc(-n2cc3c(N4CCCC(C(=O)NCc5cc[nH]n5)C4)ncnc3n2)cc1 (stereo not drawn) | > 10 µM | – | – | –
O=C(NCc1ccc2sccc2c1)[C@H]1CCCN(c2ncnc3nn(-c4ccc(C(F)(F)F)cc4)cc23)C1 | – | – | 0.74 µM | 150%
CSc1ccc(CNC(=O)[C@H]2CCCN(c3ncnc4nn(-c5ccc(C)cc5)cc34)C2)cc1 | – | – | 3.2 µM | 202%
